Assays:
[1] = system: HepG2 cells; test: Cell cycle analysis by BrdU uptake and 7-AAD staining; type: cell-based
Method: (§1) HepG2 cells were treated with 3-(decylamino)-5-phenylcyclohex-2-en-1-one for 36 h with various concentrations. Cells were then analyzed by BrdU uptake and 7-AAD staining, G0, G1, S, G2/M phase cells were then quantitated and graphed. […] Confluent monolayers of HepG2 cells were injured and cellular migration into the wound was determined under vehicle or 3-(decylamino)-5-phenylcyclohex-2-en-1-one treated condition. 36 h later cells were then observed under white field microscopy and recovery of cells to wound heal was quantified and graphed (right).
(§2) HepG2 cells were treated with 3-(decylamino)-5-phenylcyclohex-2-en-1-one at 10 μM for various times. At each time point, cells were analyzed by BrdU uptake and 7-AAD staining, G0, G1, S, G2/M phase cells were then quantitated and graphed. […] Cells were then observed under white field microscopy.

[2] = system: SCF substrates p27, NRF2 and CDT1; test: SCF substrates, protein immunoblotting in HepG2 cells; type: cell-based; settings: 10 μM, various times (FIG. 6A)
[3] = system: HepG2 cells; test: Mitotic spindle immunostaining (α-tubulin, DAPI); type: cell-based; settings: 1 uM, 24 h (FIG. 7B)
Method: Cells were then washed with PBS and fixed with 4% paraformaldehyde for 20 min. Cells were co-immunostained for either α-tubulin. Cells were counterstained with DAPI to visualize the nucleus.
The integrity of the centrosome and mitotic spindles after 3-(decylamino)-5-phenylcyclohex-2-en-1-one treatment was examined. HepG2 cells were stained with antibody to α-tubulin to visualize the mitotic spindle (FIG. 7A-B). […] The circular prophase configurations were observed (FIG. 7B, top panel). One classic phenotype of the circular chromosome configuration is circular figures arranged on monopolar spindles around large centrosomes. No spindles assembly in metaphase was observed (FIG. 7B, lower panel).

[4] = system: Clvd-caspase3 and Clvd-PARP; test: Apoptosis markers, protein immunoblotting in HepG2 cells; type: cell-based
[5] = system: human lung tissue; test: LPS-treated human lung slices, cytokines and immunoblotting; type: cell-based
Method: (§3) Cells were then treated with LPS (10 ng/ml) for additional 2 h. Media were then collected and TNF concentration was determined by ELISA. […] Lung tissue was collected and assayed for immunoblotting. Culture media was collected and assayed for cytokines.
3-(decylamino)-5-phenylcyclohex-2-en-1-one was next tested in human lung tissue. Human lung slices were pretreated with 3-(decylamino)-5-phenylcyclohex-2-en-1-one for 18 h before LPS treatment (100 ng/ml) for additional 4 h. […] 3-(decylamino)-5-phenylcyclohex-2-en-1-one reduced nedd8-cullins level and rescued IκBα in a dose dependent manner.

[6] = system: Nedd8-cullin; test: Cullin neddylation, protein immunoblotting in HepG2 cells; type: cell-based
Source text: Cells were then collected and assayed for protein immunoblotting. […]
DCN1 protein is believed to harbor a UBC12 binding pocket. Scott et al, Cell 757:1671-84 (2014). […] Scott et al. (2014). The N-terminal acetylation acts as an avidity enhancer within an interconnected multiprotein complex. Science, 554:674-8 (2011). Specifically, n-terminal of UBC12 is acetylated (FIG. 1A, yellow) and completely buried inside the hydrophobic pocket within DCN1 (4gao.PDB, FIG. 1B). Small molecule inhibition of the DCN1 hydrophobic pocket would presumably disrupt UBC12 binding, and thus disrupt Neddylation of Cullin protein. Potential ligands were assessed that might fit the DCN1 domain cavities (FIG. 1B). 3-(pentylamino)-5-phenylcyclohex-2-en-1-one was selected for future testing (FIG. 1C). […] MLN4924 was used as a positive control.

[7] = system: HepG2 cells; test: Cell morphology under white field microscopy; type: cell-based; settings: 10 μM, time dependent (FIG. 6C)
Method: as §2

[8] = system: HepG2 tumor tissue; test: PD/PK study, tumor tissue immunoblotting after single oral dose; type: in vivo, nude mice
Method: Nude mice were implanted with HepG2 cells (10^6 cells) through subcutaneous injection. Five weeks later, once tumor size reaches 0.3 cm^3, mice were randomized and given 1 dose of 3-(decylamino)-5-phenylcyclohex-2-en-1-one (15 mg/kg) by oral gavage. Mice were then euthanized, plasma and tumor tissue were isolated for analysis. Tumor tissue were grinded and assayed for protein immunoblotting (n=3-4).
A PD/PK study was also performed. Mice were implanted with HepG2 cells (10^6 cells) through subcutaneous injection. 5 weeks later, once tumor size reached 0.3 cm^3, mice were randomized and given 1 dose of 3-(decylamino)-5-phenylcyclohex-2-en-1-one (15 mg/kg) by oral gavage (FIG. 9A). […] NRF2 protein levels peaked 4 h after administration of BC1558 and started to decline by 8-24 h post-dose. The timing of CDT1 accumulation was compared to NRF2, peaking 4 h after 3-(decylamino)-5-phenylcyclohex-2-en-1-one administration.

[9] = system: HepG2 cells; test: Wound-healing assay; type: cell-based; settings: 36 h (FIG. 5C)
Method: as §1

[10] = system: HepG2 cells; test: HepG2 cell proliferation (CellTiter-Glo Luminescent Cell Viability Assay); type: cell-based; settings: 96 h
Method: Cell proliferation were then measured by CellTiter-Glo® Luminescent Cell Viability Assay (n=3).
4KHepG2 cells were seeded in 96 well plates for overnight. Compounds listed in Table 3 were then added to each well at various concentrations. 96 h later, cell proliferation was measured by ATP production using a CellTiter-Glo® Luminescent Cell Viability Assay (Promega).
3-(pentylamino)-5-phenylcyclohex-2-en-1-one was modified by adding a different sidechain. These novel compounds were tested further in an in vitro proliferation assay using ATPLite Cell Proliferation kit. […] Others lost activity in reducing Cullin Neddylation and inhibiting cell proliferation (FIG. 3C-D).

[11] = system: PBMC cells; test: LPS-induced TNF release from PBMC cells (ELISA); type: cell-based; settings: various concentrations for 2 h, then LPS (10 ng/ml) for 12 h (FIG. 10A)
Method: as §3
Since SCF machinery is believed to be essential for NF-kB activation, it was investigated whether the DCN1 inhibitors could affect inflammation. 3-(decylamino)-5-phenylcyclohex-2-en-1-one was first tested in PBMCs cells. Briefly, PBMC cells were treated with 3-(decylamino)-5-phenylcyclohex-2-en-1-one at various concentrations for 2 h before exposed to LPS (10 ng/ml) for 12 h.

[12] = human lung slices, dose dependent
[13] = single dose 15 mg/kg oral gavage, tumor tissue

- IC50 ([10]; Homo sapiens, ATP production, n=3, read-out: IC50Proliferation): < 1000 nM
Structure (SMILES): CCCCCCCCCCNC1=CC(=O)CC(c2ccccc2)C1 (stereo not drawn) [BC1558, 3-(decylamino)-5-phenylcyclohex-2-en-1-one]
- G0 and G2/M phases ([1]; 10 μM, at 16 h (FIG. 6B)): increased
- S phase ([1]; 10 μM, at 16 h (FIG. 6B)): effectively decreased
- G0 and G2/M phases ([1]; 36 h, dose dependent (FIG. 5B)): increased
- S phase ([1]; 36 h, dose dependent (FIG. 5B)): effectively decreased
- SCF substrates p27, NRF2 and CDT1 [2]: increased
- integrity of the centrosome and mitotic spindles [3]: Abnormal cells with several representative mitotic abnormalities were also detected
- apoptosis markers Clvd-caspase3 and Clvd-PARP ([4]; 10 μM, various times (FIG. 6A)): effectively increased
- apoptosis markers Clvd-caspase3 and Clvd-PARP ([4]; 48 h, various concentrations (FIG. 5A)): effectively increased
- IκBα [5, 12]: rescued
- nedd8-cullins level [5, 12]: reduced
- LPS induced IL1, IL6 and TNF release from lung tissue ([5]; pretreated 18 h, LPS 100 ng/ml for 4 h): potently inhibited
- neddylation of several cullin isoforms ([6]; 10 μM, time dependent (FIG. 6A)): drastically reduced
- neddylation of several cullin isoforms ([6]; 48 h, dose dependent (FIG. 5A)): drastically reduced
- activity compared with MLN4924 ([6]; 48 h, various concentration (FIG. 4)): comparable activity
- reducing Cullin Neddylation ([6]; 48 h, various concentrations (FIG. 3C)): exhibited activity
- cell morphology [7]: accumulation of rounded, apoptotic hepG2 cells
- phosphorylated CHK1 (Ser 317), DNA damage in the tumor ([8]; at 8 h after a single administration, 15 mg/kg oral gavage): increased levels
- steady state levels of NRF2 and CDT1 [8, 13]: time-dependent increase
- time at which NRF2 protein levels started to decline post-dose [8, 13]: 8 to 24 h
- time of maximal effect on NEDD8-cullin levels post-dose [8, 13]: 2 to 4 h
- time of peak CDT1 accumulation after administration [8, 13]: 4 h
- time of peak NRF2 protein levels after administration [8, 13]: 4 h
- time to decrease of NEDD8-cullin levels after administration ([8]; single dose 15 mg/kg oral gavage, tumor tissue (FIG. 9B)): ≤ 1 h
- hepG2 cells migration [9]: showed inhibition
- inhibiting cell proliferation ([10]; various concentrations (FIG. 3D)): exhibited activity
- LPS-induced TNF release from PBMC cells [11]: potently inhibited
